Ends that are not written are not given here.
What was measured:
[1] = system: methicillin resistant Staphylococcus aureus (MRSA) biofilm; details: approximate peptide concentration […] (around 3 μg/ml); compared to untreated samples
How it was run: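 Peptide was present from inoculation onward, with bacteria seeded at 1/100 from overnight cultures into BM2 biofilm medium or Luria Broth. Crystal violet staining of surface-attached cells (A595) quantified biofilm reduction at 22–46 h. K. pneumoniae was additionally screened in a real-time Bioflux flow device for some peptides.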

[2] = system: human peripheral blood mononuclear cells (MCP-1); assay: SPOT-synthesized derivative screen: production of chemokine MCP-1; type: cell-based; details: Table 12, No LPS, human PBMC, peptide at ~18-24 μM; for MCP1: background subtracted 139 (HH2 derivatives), 170 (1018 derivatives), 242 (1002 and hybrid peptides) pg/ml
How it was run: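 MCP-1 was quantified by capture ELISA in cleared culture supernatants of treated human peripheral blood mononuclear cells. Cells came from heparinized volunteer blood via Ficoll gradient and were seeded at 0.75 to 1×10^6 cells/ml (37 °C, 5% CO2).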

[3] = system: LPS-stimulated human peripheral blood mononuclear cells (IL1-β); type: cell-based; details: Table 12, cells stimulated with 10 ng/ml LPS; for IL1β Production: LPS alone 1313 (HH2 derivatives), 1927 (1018 derivatives), 2455 (1002 and hybrid peptides) pg/ml

Substance	% Biofilm inhibition [1] [%]	Fold increase in MCP1 cf. untreated cells [2]	MCP1 [2] [pg/mL]	Fold change in IL1β relative to no peptide LPS stimulated cells [3]	IL1β Production [3] [pg/mL]
1018-K9: single substituted 1018 peptide (VRLIVAVRKWRR-NH2) [Peptide 1018-K9]	60	1.1	15	0.23	300
HH2-W4: single substituted HH2 peptide (VQLWIRVAVIRA-NH2)	58	24	3945	0.30	399
1018-V12: single substituted 1018 peptide (VRLIVAVRIWRV-NH2) [Peptide 1018-V12]	56	1.3	56	0.51	673
1018-V3: single substituted 1018 peptide (VRVIVAVRIWRR-NH2) [Peptide 1018-V3]	76	16	2550	0.22	295
HH2-L8: single substituted HH2 peptide (VQLRIRVLVIRA-NH2)	50	107	17953	0.55	725
1018-L2: single substituted 1018 peptide (VLLIVAVRIWRR-NH2) [Peptide 1018-L2]	61	0.8	-35	0.32	426
HH2-W11: single substituted HH2 peptide (VQLRIRVAVIWA-NH2)	45	15	2309	1.04	1362
HH2-A9: single substituted HH2 peptide (VQLRIRVAAIRA-NH2)	51	1.9	157	1.46	1923
HH2-K5: single substituted HH2 peptide (VQLRKRVAVIRA-NH2)	27	12	1923	1.19	1559
1018-L11: single substituted 1018 peptide (VRLIVAVRIWLR-NH2) [Peptide 1018-L11]	4	1.7	118	1.12	1467
HH2-Q10: single substituted HH2 peptide (VQLRIRVAVQRA-NH2)	61	31	5057	0.90	1180
1002-Q10: single substituted 1002 peptide (VQRWLIVWRQRK-NH2) [Peptide 1002-Q10]	39	1.3	71.2	0.05	127
HH2-L7: single substituted HH2 peptide (VQLRIRLAVIRA-NH2)	68	19	3138	1.05	1378
1018-I10: single substituted 1018 peptide (VRLIVAVRIIRR-NH2) [Peptide 1018-I10]	58	1.3	56	0.10	135
1002-Q4: single substituted 1002 peptide (VQRQLIVWRIRK-NH2) [Peptide 1002-Q4]	36	0.9	-28.8	0.47	1165
1002-W6: single substituted 1002 peptide (VQRWLWVWRIRK-NH2) [Peptide 1002-W6]	53	0.9	-36.2	0.05	127
HH2-I3: single substituted HH2 peptide (VQIRIRVAVIRA-NH2)	62	6.8	982	1.02	1336
HH2-K8: single substituted HH2 peptide (VQLRIRVKVIRA-NH2)	73	9.8	1501	0.65	851
1018-I6: single substituted 1018 peptide (VRLIVIVRIWRR-NH2) [Peptide 1018-I6]	65	1.6	110	0.44	582
1002-G5: single substituted 1002 peptide (VQRWGIVWRIRK-NH2) [Peptide 1002-G5]	59	0.9	-36.2	0.25	621
1018-Q6: single substituted 1018 peptide (VRLIVQVRIWRR-NH2) [Peptide 1018-Q6]	55	0.7	-54	0.14	186
1002-L10: single substituted 1002 peptide (VQRWLIVWRLRK-NH2) [Peptide 1002-L10]	65	3.0	493.6	0.05	127
HH2-I8: single substituted HH2 peptide (VQLRIRVIVIRA-NH2)	74	17	2789	0.53	701
1002-Q7: single substituted 1002 peptide (VQRWLIQWRIRK-NH2) [Peptide 1002-Q7]	45	0.9	-36.2	0.06	138
1018-G12: single substituted 1018 peptide (VRLIVAVRIWRG-NH2) [Peptide 1018-G12]	53	1.0	7	0.37	490
1018-W4: single substituted 1018 peptide (VRLWVAVRIWRR-NH2) [Peptide 1018-W4]	67	1.2	29	0.14	182
1018-K3: single substituted 1018 peptide (VRKIVAVRIWRR-NH2) [Peptide 1018-K3]	15	49	8203	1.13	1489
1018-Q9: single substituted 1018 peptide (VRLIVAVRQWRR-NH2) [Peptide 1018-Q9]	38	0.8	-28	1.00	1313
HH2-R2: single substituted HH2 peptide (VRLRIRVAVIRA-NH2)	54	4.6	604	1.10	1438
1018-G7: single substituted 1018 peptide (VRLIVAGRIWRR-NH2) [Peptide 1018-G7]	47	25	4098	1.23	1610

From patent US20190315823A1, “SMALL CATIONIC ANTI-BIOFILM AND IDR PEPTIDES” (priority 2013, published 2019)
